Data set [1] in a line: Dissolution test of poorly-soluble substances using distilled water. It counts as physicochemical.
Data set [2] is described as follows: Dissolution test of poorly-soluble substances using 2nd fluid for disintegration test (pH 6.8) of the Japanese Pharmacopoeia. It counts as physicochemical.
The procedure of data set [3]:
The rotation number of the stirrer was 120 rpm, and all of the tests were conducted in a thermostat at 37±0.5° C. Two types of test solutions, namely, distilled water and 2nd fluid for disintegration test (pH 6.8) of the Japanese Pharmacopoeia were used. As such 2nd fluid for disintegration test of the Japanese Pharmacopoeia, a solution prepared by diluting the 10-fold concentration solution of Kanto Kagaku Co., Ltd. with distilled water was used.
A comparative test was carried out in the same manner as that described above with the exception that a poorly-soluble substance or the like was used in an amount equal to that of a substance with improved aqueous solubility, instead of the substance with improved aqueous solubility.
1 mL of the solution was sampled in an Eppendorf centrifuge tube, 1, 3, 10, 30, 60, 180 and 360 minutes after initiation of the test. The thus sampled solution was centrifuged at 12,000 rpm for 5 minutes. […] In the case of the comparative test, the poorly-soluble substance or the like, which had not been dissolved in the solution, was removed. An aliquot of this supernatant was immediately frozen. The frozen sample was freeze-dried, and it was then used as a sample in the measurement of the amount of the substance with improved aqueous solubility, which had been dissolved in the test solution. The dissolved poorly-soluble substance was measured mainly using a dual wavelength absorption photometer.
Moreover, a comparative test was carried out using silica fume instead of the calcium compound microparticles. Specifically, a coating treatment was carried out according to the same method as that described in the above section “6-1.

As for `O=C(Nc1ccc(Cl)cc1)Nc1ccc(Cl)c(Cl)c1` [10-1, Trichlorocarbanilide], the Dissolved amount in data set [1] (Dissolution test using water, elution time 1 min) is 0.0 µg/mL; in data set [1] (Dissolution test using water, elution time 3 min) it was 0.1 µg/mL; in data set [1] (Dissolution test using water, elution time 10 min) it was 0.4 µg/mL; in data set [1] (Dissolution test using water, elution time 30 min) it was 0.4 µg/mL; in data set [1] (Dissolution test using water, elution time 60 min), 0.4 µg/mL; in data set [1] (Dissolution test using water, elution time 180 min) it was 0.5 µg/mL. Moreover, the Dissolved amount in data set [1] (Dissolution test using water, elution time 360 min) was found to be 0.6 µg/mL; in data set [1] (Distilled water, trichlorocarbanilide, elution time not printed in Table 13), 0.6 µg/mL; in data set [2] (2nd fluid for disintegration test, elution time 1 min), 0.0 µg/mL; in data set [2] (2nd fluid for disintegration test, elution time 3 min) it was 0.3 µg/mL; in data set [2] (2nd fluid for disintegration test, elution time 10 min), 0.6 µg/mL; in data set [2] (2nd fluid for disintegration test, elution time 30 min), 0.8 µg/mL. In addition, the Dissolved amount in data set [2] (2nd fluid for disintegration test, elution time 60 min) was determined as 1.1 µg/mL; in data set [2] (2nd fluid for disintegration test, elution time 180 min), 1.3 µg/mL; in data set [2] (2nd fluid for disintegration test, elution time 360 min), 1.5 µg/mL; in data set [2] (Second disintegration test medium, trichlorocarbanilide, elution time not printed in Table 13), 1.5 µg/mL. Besides, the solubility-improving effect result in data set [3] was “a solubility-improving effect was obtained”.

The values are drawn from US9023398B2, “Method for improving the aqueous solubility of poorly-soluble substances” (Kabushiki Kaisha Sangi, priority 2009, dated 2015).
